Toxic doses and inconclusive results are not listed. Rule as the data show it: active = T/C of 150% or more; inactive = T/C below 125%.
Tested on: L1210 leukemia ip in BDF1 mice, survival T/C
Test: NCI In Vivo Anticancer Drug Screen. Data for tumor model L1210 Leukemia (intraperitoneal) in B6D2F1 (BDF1) mice
Settings: endpoint: mean survival time, higher = longer survival
Outline: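 In this screen, tumor-bearing mice given compound are compared to those given vehicle, and their survival values are reported as a treated-to-control quotient.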

[1] = dose: 100.0 mg/kg/injection, schedule: Q01DX001 (ip), vehicle: saline
[2] = dose: 200.0 mg/kg/injection, schedule: Q01DX001 (ip), vehicle: saline
[3] = dose: 400.0 mg/kg/injection, schedule: Q01DX001 (ip), vehicle: saline
[4] = dose: 100.0 mg/kg/injection, schedule: Q01DX009 (ip), vehicle: saline with Tween-80
[5] = dose: 200.0 mg/kg/injection, schedule: Q01DX009 (ip), vehicle: saline with Tween-80
[6] = dose: 100.0 mg/kg/injection, schedule: Q04DX002 (ip), vehicle: Klucel (hydroxypropylcellulose) (HPC)
[7] = dose: 200.0 mg/kg/injection, schedule: Q04DX002 (ip), vehicle: Klucel (hydroxypropylcellulose) (HPC)
[8] = dose: 100.0 mg/kg/injection, schedule: Q01DX001 (ip), vehicle: carboxymethylcellulose (CMC)
[9] = dose: 200.0 mg/kg/injection, schedule: Q01DX001 (ip), vehicle: carboxymethylcellulose (CMC)
[10] = dose: 400.0 mg/kg/injection, schedule: Q01DX001 (ip), vehicle: carboxymethylcellulose (CMC)

Measured: T/C

CCC(=O)O[C@H]1CC[C@H]2[C@@H]3CC[C@H]4CC(=O)[C@H](C)C[C@]4(C)[C@H]3CC[C@]12C
inactive: dose: 44.13 mg/kg/injection, schedule: Q01DX Z (sc), vehicle: steriod suspending solution 96 % of control | dose: 88.25 mg/kg/injection, schedule: Q01DX Z (sc), vehicle: steriod suspending solution 104 % of control | dose: 176.5 mg/kg/injection, schedule: Q01DX Z (sc), vehicle: steriod suspending solution 103 % of control | dose: 353.0 mg/kg/injection, schedule: Q01DX Z (sc), vehicle: steriod suspending solution 100 % of control

O=C(CCCCC(=O)Nc1cc(C2=NCCN2)cc(C2N=CCN2)c1)Nc1cc(C2=NCCN2)cc(C2=NCCN2)c1 (centres undefined)
inactive: dose: 2.2 mg/kg/injection, schedule: Q01DX Z (ip), vehicle: methylcellulose (MC) 96 % of control | dose: 3.0 mg/kg/injection, schedule: Q01DX Z (ip), vehicle: methylcellulose (MC) 106 % of control | dose: 5.0 mg/kg/injection, schedule: Q01DX Z (ip), vehicle: carboxymethylcellulose (CMC) 120 % of control | dose: 5.0 mg/kg/injection, schedule: Q01DX Z (ip), vehicle: methylcellulose (MC) 101 % of control | dose: 9.0 mg/kg/injection, schedule: Q01DX Z (ip), vehicle: methylcellulose (MC) 87 % of control | dose: 10.0 mg/kg/injection, schedule: Q01DX Z (ip), vehicle: carboxymethylcellulose (CMC) 100 % of control | dose: 15.0 mg/kg/injection, schedule: Q01DX Z (ip), vehicle: carboxymethylcellulose (CMC) 94 % of control

O=C(NCCCOc1ccccc1)NCCc1ccc(Cl)c(Cl)c1
inactive: dose: 100.0 mg/kg/injection, schedule: Q01DX001 (ip), vehicle: gum acacia 99 % of control | dose: 200.0 mg/kg/injection, schedule: Q01DX001 (ip), vehicle: gum acacia 94 % of control | dose: 400.0 mg/kg/injection, schedule: Q01DX001 (ip), vehicle: gum acacia 91 % of control

Cc1c2c(ccc3ccccc32)cc2cccc[n+]12
inactive: dose: 2.0 mg/kg/injection, schedule: Q01DX Z (ip), vehicle: saline 101 % of control | dose: 4.0 mg/kg/injection, schedule: Q01DX Z (ip), vehicle: saline 116 % of control

O=C(CC(=O)c1ccco1)c1ccco1
inactive: [1] 100 % of control | [2] 102 % of control | [3] 96 % of control

NC(=S)NN=C1CCN(Cc2ccccc2)CC1
inactive: dose: 50.0 mg/kg/injection, schedule: Q01DX001 (ip), vehicle: saline 95 % of control | [1] 101 % of control

CCCCCC[n+]1cccc(C#N)c1
inactive: dose: 18.75 mg/kg/injection, schedule: Q01DX009 (ip), vehicle: saline 95 % of control | dose: 37.5 mg/kg/injection, schedule: Q01DX009 (ip), vehicle: saline 95 % of control | dose: 75.0 mg/kg/injection, schedule: Q01DX001 (ip), vehicle: saline 113 % of control | dose: 75.0 mg/kg/injection, schedule: Q01DX009 (ip), vehicle: saline 94 % of control | dose: 75.0 mg/kg/injection, schedule: Q04DX003 (ip), vehicle: saline 97 % of control | dose: 150.0 mg/kg/injection, schedule: Q01DX001 (ip), vehicle: saline 95 % of control | dose: 150.0 mg/kg/injection, schedule: Q04DX003 (ip), vehicle: saline 101 % of control | dose: 300.0 mg/kg/injection, schedule: Q01DX001 (ip), vehicle: saline 100 % of control

CC(C)Cc1ccc(N=Nc2ccccc2)cc1
inactive: dose: 100.0 mg/kg/injection, schedule: Q04DX003 (ip), vehicle: saline with Tween-80 93 % of control | dose: 200.0 mg/kg/injection, schedule: Q04DX003 (ip), vehicle: saline with Tween-80 93 % of control | dose: 400.0 mg/kg/injection, schedule: Q04DX003 (ip), vehicle: saline with Tween-80 88 % of control

CCNC(=O)c1ccc2c(c1NCC)C(=O)c1ccccc1C2=O
inactive: dose: 75.0 mg/kg/injection, schedule: Q01DX001 (ip), vehicle: acetone 98 % of control | dose: 150.0 mg/kg/injection, schedule: Q01DX001 (ip), vehicle: acetone 104 % of control | dose: 300.0 mg/kg/injection, schedule: Q01DX001 (ip), vehicle: acetone 104 % of control

Clc1cc2nsnc2c2ccccc12
inactive: dose: 200.0 mg/kg/injection, schedule: Q04DX002 (ip), vehicle: gum acacia 95 % of control

Nc1ccc(OCCCOc2ccccc2)cc1
inactive: dose: 100.0 mg/kg/injection, schedule: Q01DX001 (ip), vehicle: saline with Tween-80 102 % of control | [4] 101 % of control | dose: 200.0 mg/kg/injection, schedule: Q01DX001 (ip), vehicle: saline with Tween-80 102 % of control | [5] 112 % of control | dose: 400.0 mg/kg/injection, schedule: Q01DX001 (ip), vehicle: saline with Tween-80 97 % of control

Cc1ccc(CCC(=O)O)c2ccccc12
inactive: [6] 93 % of control | [7] 87 % of control

CCOC(=O)C1=NN(c2ccccc2)C(=O)C1N=Nc1ccc(S(=O)(=O)Nc2ncccn2)cc1 (centres undefined)
inactive: [1] 98 % of control | [2] 96 % of control | [3] 101 % of control

COc1ccc(N)cc1NC(C)=O
inactive: [1] 102 % of control | [2] 110 % of control

O=C(CCCCCCCCCCBr)OCc1ccccc1
inactive: dose: 100.0 mg/kg/injection, schedule: Q01DX001 (ip), vehicle: saline sonified 103 % of control | dose: 200.0 mg/kg/injection, schedule: Q01DX001 (ip), vehicle: saline sonified 99 % of control | dose: 400.0 mg/kg/injection, schedule: Q01DX001 (ip), vehicle: saline sonified 105 % of control

Cc1c2ccccc2c(CN(C)CC(=O)O)c2ccccc12
inactive: dose: 50.0 mg/kg/injection, schedule: Q01DX009 (ip), vehicle: saline with Tween-80 92 % of control | [4] 90 % of control | [5] 92 % of control

CC1C(C)C1(Br)c1ccccc1 (centres undefined)
inactive: [1] 91 % of control | [2] 101 % of control | [3] 96 % of control

CCCCCC(O)(CCCC)CCCC
inactive: [8] 104 % of control | [9] 107 % of control | [10] 102 % of control

N=C(N)SC1c2ccccc2-c2cc([N+](=O)[O-])ccc21 (centres undefined)
inactive: dose: 100.0 mg/kg/injection, schedule: Q01DX005 (ip), vehicle: Klucel (hydroxypropylcellulose) (HPC) 105 % of control | [6] 101 % of control | dose: 200.0 mg/kg/injection, schedule: Q01DX005 (ip), vehicle: Klucel (hydroxypropylcellulose) (HPC) 98 % of control | [7] 114 % of control

O=C(Nc1cccc(O)c1)C(O)C(O)C(O)C(O)CO (centres undefined)
inactive: dose: 100.0 mg/kg/injection, schedule: Q04DX003 (ip), vehicle: saline 97 % of control | dose: 200.0 mg/kg/injection, schedule: Q04DX003 (ip), vehicle: saline 94 % of control | dose: 400.0 mg/kg/injection, schedule: Q04DX003 (ip), vehicle: saline 91 % of control

CCCCCCCOc1ccc(C2=C(c3ccccc3)C(=O)C(c3ccccc3)=C2c2ccccc2)cc1
inactive: [8] 100 % of control | [9] 100 % of control | [10] 94 % of control

COc1ccccc1NC(=O)Oc1c(C(C)C)cccc1C(C)C
inactive: dose: 100.0 mg/kg/injection, schedule: Q01DX009 (ip), vehicle: Klucel (hydroxypropylcellulose) (HPC) 94 % of control | dose: 100.0 mg/kg/injection, schedule: Q04DX003 (ip), vehicle: Klucel (hydroxypropylcellulose) (HPC) 95 % of control | dose: 200.0 mg/kg/injection, schedule: Q01DX009 (ip), vehicle: Klucel (hydroxypropylcellulose) (HPC) 97 % of control | dose: 200.0 mg/kg/injection, schedule: Q04DX003 (ip), vehicle: Klucel (hydroxypropylcellulose) (HPC) 102 % of control | dose: 400.0 mg/kg/injection, schedule: Q01DX009 (ip), vehicle: Klucel (hydroxypropylcellulose) (HPC) 106 % of control | dose: 400.0 mg/kg/injection, schedule: Q04DX003 (ip), vehicle: Klucel (hydroxypropylcellulose) (HPC) 94 % of control

O=C(O)/C=C(/Oc1ccc(Cl)cc1Cl)C(=O)O
inactive: [6] 97 % of control | dose: 100.0 mg/kg/injection, schedule: Q04DX002 (ip), vehicle: saline with Tween-80 100 % of control | [7] 87 % of control | dose: 200.0 mg/kg/injection, schedule: Q04DX002 (ip), vehicle: saline with Tween-80 100 % of control | dose: 400.0 mg/kg/injection, schedule: Q04DX002 (ip), vehicle: Klucel (hydroxypropylcellulose) (HPC) 110 % of control | dose: 400.0 mg/kg/injection, schedule: Q04DX002 (ip), vehicle: saline with Tween-80 100 % of control

Nc1ncnc2c1ncn2C1OC(C(=O)O)C(O)C1O (centres undefined)
inactive: dose: 100.0 mg/kg/injection, schedule: Q01DX005 (ip), vehicle: saline 107 % of control | dose: 200.0 mg/kg/injection, schedule: Q01DX005 (ip), vehicle: saline 101 % of control
